B1: SHBG (protein, UniProt P04278 30-402, looked up)
Sex hormone-binding globulin: LRPVLPTQSAHDPPAVHLSNGPGQEPIAVMTFDLTKITKTSSSFEVRTWDPEGVIFYGDTNPKDDWFMLGLRDGRPEIQLHNHWAQLTVGAGPRLDDGRWHQVEVKMEGDSVLLEVDGEEVLRLRQVSGPLTSKRHPIMRIALGGLLFPASNLRLPLVPALDGCLRRDSWLDKQAEISASAPTSLRSCDVESNPGIFLPPGTQAEFNLRDIPQPHAEPWAFSLDLGLKQAAGSGHLLALGTPENPSWLSLHLQDQKVVLSSGSGPGLDLPLVLGLPLQLKLSMSRVVLSQGSKMKALALPPLGLAPLLNLWAKPQGRLFLGALPGEDSSTSFCLNGLWAQGQRLDVDQALNRSHEIWTHSCPQSPGNGTDASH

What was measured:
[1] = reported normal range, cited from earlier work; for Normal Range Max: maximum; for Normal Range Min: minimum
[2] = Baseline (24-hour pre-dose) and normal ranges of endogenous analytes (free/total testosterone, DHT, estradiol, SHBG); settings: for Pooled Baseline Max / Pooled Baseline Min: baseline range observed, all cohorts pooled; for Pooled Baseline Max / Baseline Max, Dose Cohort 600 (μg) / Baseline Max, Dose Cohort 1200 (μg) / Baseline Max, Dose Cohort 1800 (μg): maximum; for Pooled Baseline Min / Baseline Min, Dose Cohort 600 (μg) / Baseline Min, Dose Cohort 1200 (μg) / Baseline Min, Dose Cohort 1800 (μg): minimum; for Baseline Max, Dose Cohort 600 (μg) / Baseline Min, Dose Cohort 600 (μg) / Baseline Max, Dose Cohort 1200 (μg) / Baseline Min, Dose Cohort 1200 (μg) / Baseline Max, Dose Cohort 1800 (μg) / Baseline Min, Dose Cohort 1800 (μg): baseline range; for Baseline Max, Dose Cohort 600 (μg) / Baseline Min, Dose Cohort 600 (μg): 600 μg dose cohort; for Baseline Max, Dose Cohort 1200 (μg) / Baseline Min, Dose Cohort 1200 (μg): 1200 μg dose cohort; for Baseline Max, Dose Cohort 1800 (μg) / Baseline Min, Dose Cohort 1800 (μg): 1800 μg dose cohort
[3] = General properties of testosterone: stability; format: physicochemical; settings: in air

Molecule | Normal Range Max [1] | Normal Range Min [1] | Pooled Baseline Max [2] | Pooled Baseline Min [2] | Baseline Max, Dose Cohort 600 (μg) [2] | Baseline Min, Dose Cohort 600 (μg) [2] | Baseline Max, Dose Cohort 1200 (μg) [2] | Baseline Min, Dose Cohort 1200 (μg) [2] | Baseline Max, Dose Cohort 1800 (μg) [2] | Baseline Min, Dose Cohort 1800 (μg) [2] | Stability [3]
C[C@]12CCC(=O)C[C@@H]1CC[C@@H]1[C@@H]2CC[C@]2(C)[C@@H](O)CC[C@@H]12 [Dihydrotestosterone] | 22.00 ng/dL | 4.00 ng/dL | 32.60 ng/dL | 5.02 ng/dL | 22.10 ng/dL | 5.29 ng/dL | 25.30 ng/dL | 5.04 ng/dL | 32.60 ng/dL | 5.02 ng/dL | –
C[C@]12CC[C@H]3[C@@H](CCC4=CC(=O)CC[C@@]43C)[C@@H]1CC[C@@H]2O [Testosterone, 17β-Hydroxyandrost-4-en-3-one] | – | – | – | – | – | – | – | – | – | – | powder. It is odourless, and stable in air.
C[C@]12CC[C@@H]3c4ccc(O)cc4CC[C@H]3[C@@H]1CC[C@@H]2O [Estradiol] | – | – | 12.2 ng/dL | 1.7 ng/dL | 12.2 ng/dL | 2.09 ng/dL | 11.9 ng/dL | 1.7 ng/dL | 9.74 ng/dL | 1.77 ng/dL | –
B1 | 114.00 nmol/L | 18.00 nmol/L | 137.00 nmol/L | 15.30 nmol/L | 102.00 nmol/L | 15.30 nmol/L | 86.70 nmol/L | 16.00 nmol/L | 137.00 nmol/L | 25.20 nmol/L | –

Reference: patent US20160250228A1 (Acerus Pharmaceuticals Corporation, priority 2011, published 2016)
